In patent US10219516B2, “Molecules having pesticidal utility, and intermediates, compositions, and processes, related thereto” (priority 2015, dated 2019):
Where a name gives a salt, the structure may show the parent alone. Read-outs that look alike come from different tables or passages of the source.

Key:
Format in all cases: in vivo
[1] = tested on: Beet Armyworm (Spodoptera exigua, LAPHEG); test: Bioassay on Beet Armyworm (BAW), 128-well diet tray assay
How it was run: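 Diet in each of eight wells received 50 μg/cm^2 of test molecule (90:10 acetone-water, dried), then one to five second-instar larvae were added. Mortality (%) was scored after five to seven days at 25° C. under 14:10 light-dark and averaged across the wells.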

[2] = tested on: Cabbage Looper (Trichoplusia ni, TRIPNI); test: Bioassay on Cabbage Looper (CL), 128-well diet tray assay; details: Trichoplusia ni
How it was run: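 Second-instar larvae, one to five per well, placed on artificial diet treated with 50 μg/cm^2 test molecule in 90:10 acetone-water, dried before infestation. Held 5–7 days at 25° C, 14:10 light-dark; percent mortality averaged over eight wells.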

[3] = tested on: Yellow Fever Mosquito (Aedes aegypti, AEDSAE); test: Bioassay on Yellow Fever Mosquito (YFM), 96-well plate larval assay; details: for YFM rating: Yellow Fever Mosquito, 96-well plate larval assay; for YFM (Biological Results, rating): Species YFM (Yellow Fever Mosquito)
How it was run: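 Each well was scored for mortality after 3 days at room temperature under a non-evaporative lid. Test molecules came from DMSO masters (4000 ppm stock) diluted with water/acetone 90:10 and dispensed into six replicate plates, which were then infested with roughly 1-day-old larvae in liver-powder water.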

[4] = Beet Armyworm, 128-well diet tray assay, read-out: BAW rating
[5] = Cabbage Looper, 128-well diet tray assay, read-out: CL rating
[6] = Species BAW (Beet Armyworm), read-out: BAW (Biological Results, rating)
[7] = Species CL (Cabbage Looper), read-out: CL (Biological Results, rating)

SMILES | pest or weed control at 50 µg/cm2 [1, 4] [%] | pest or weed control at 50 µg/cm2 [2, 5] [%] | YFM rating [3] | pest or weed control at 50 µg/cm2 [1, 6] [%] | pest or weed control at 50 µg/cm2 [2, 7] [%] | YFM (Biological Results, rating) [3]
CS(=O)(=NC#N)c1ccc(NC(=O)c2cc(NC(=O)C3C(c4cc(Cl)cc(Cl)c4)C3(Cl)Cl)ccc2Cl)cc1 (stereo not drawn) [F502, trans-2-chloro-N-(4-(N-cyano-S-methylsulfonimidoyl)phenyl)-5-(2,2-dichloro-3-(3,5-dichlorophenyl)cyclopropane-1-carboxamido)benzamide] | 50 to 100 | 50 to 100 | A (80-100) | – | – | –
O=C(Nc1ccc(F)c(Cl)c1)c1cc(NC(=O)C2C(c3cc(Cl)cc(Cl)c3)C2(Cl)Cl)ccc1Cl (stereo not drawn) [PF122, 2-Chloro-N-(3-chloro-4-fluorophenyl)-5-(trans)-2,2-dichloro-3-(3,5-dichlorophenyl)cyclopropane-1-carboxamido)benzamide] | 50 to 100 | 50 to 100 | B (More than 0-Less than 80) | – | – | –
CCc1ccc(NC(=O)[C@H]2[C@H](c3cc(Cl)cc(Cl)c3)C2(Cl)Cl)cc1C(=O)Nc1ccc(F)cc1 (relative stereo) [PF8, trans-5-(2,2-Dichloro-3-(3,5-dichlorophenyl)cyclopropanecarboxamido)-2-ethyl-N-(4-fluorophenyl)benzamide] | 50 to 100 | 50 to 100 | A (80-100) | – | – | –
C=Cc1cc(Cl)cc([C@H]2[C@H](C(=O)Nc3ccc(Cl)c(C(=O)Nc4ccc(F)c(N)c4F)c3)C2(Cl)Cl)c1 (relative stereo) [F356, N-(3-Amino-2,4-difluorophenyl)-2-chloro-5-(trans-2,2-dichloro-3-(3-chloro-5-vinylphenyl)cyclopropane-1-carboxamido)benzamide] | – | – | – | 50 to 100 | 50 to 100 | A (80-100)
Cc1ccc2c(N)nn(C(=O)c3cc(NC(=O)[C@H]4[C@H](c5cc(Cl)cc(Cl)c5)C4(Cl)Cl)ccc3Cl)c2c1 (relative stereo) [F477, (trans)-N-(3-(3-Amino-6-methyl-1H-indazole-1-carbonyl)-4-chlorophenyl)-2,2-dichloro-3-(3,5-dichlorophenyl)cyclopropane-1-carboxamide] | 50 to 100 | 50 to 100 | A (80-100) | – | – | –
CN(C(=O)c1cccc(NC(=O)[C@H]2[C@H](c3cc(Cl)cc(Cl)c3)C2(Cl)Cl)c1)c1ccc(F)cc1 (relative stereo) [F273, trans-3-(2,2-Dichloro-3-(3,5-dichlorophenyl)cyclopropane-1-carboxamido)-N-(4-fluorophenyl)-N-methylbenzamide] | – | – | – | 50 to 100 | 50 to 100 | A (80-100)
CNc1ccc(NC(=O)c2cc(NC(=O)[C@H]3[C@H](c4cc(Cl)cc(Cl)c4)C3(Cl)Cl)ccc2Cl)cc1 (relative stereo) [PF22, trans-2-Chloro-5-(2,2-dichloro-3-(3,5-dichlorophenyl)cyclopropane-1-carboxamido)-N-(4-(methylamino)phenyl)benzamide hydrochloride] | 50 to 100 | 50 to 100 | A (80-100) | – | – | –
O=C(Nc1ncccn1)c1cc(NC(=O)[C@H]2[C@H](c3cc(Cl)cc(Cl)c3)C2(Cl)Cl)ccc1Cl (relative stereo) [F294, trans-2-Chloro-5-(2,2-dichloro-3-(3,5-dichlorophenyl)cyclopropane-1-carboxamido)-N-(pyrimidin-2-yl)benzamide] | – | – | – | 50 to 100 | 50 to 100 | A (80-100)
C[C@]1(c2ccc(OC(F)(F)F)cc2)[C@H](C(=O)Nc2ccc(Cl)c(C(=O)Nc3ccc(F)cc3)c2)C1(Cl)Cl (relative stereo) [PF32, trans-2-Chloro-5-(2,2-dichloro-3-methyl-3-(4-(trifluoromethoxy)phenyl)cyclopropanecarboxamido)-N-(4-fluorophenyl)benzamide] | 50 to 100 | 50 to 100 | A (80-100) | – | – | –
O=C(Nc1ccc(F)cc1F)c1cc(NC(=O)[C@H]2[C@H](c3cc(Cl)cc(C(F)F)c3)C2(Cl)Cl)ccc1Cl (relative stereo) [F558, 2-Chloro-5-(trans-2,2-dichloro-3-(3-chloro-5-(difluoromethyl)phenyl)cyclopropane-1-carboxamido)-N-(2,4-difluorophenyl)benzamide] | 50 to 100 | 50 to 100 | A (80-100) | – | – | –
O=C(Nc1ccc(F)cc1)c1cc(NC(=O)[C@H]2[C@H](c3cc(Cl)cc(Br)c3)C2(Cl)Cl)ccc1Cl (relative stereo) [PF37, 5-(trans-3-(3-Bromo-5-chlorophenyl)-2,2-dichlorocyclopropane-1-carboxamido)-2-chloro-N-(4-fluorophenyl)benzamide] | 50 to 100 | 50 to 100 | B (More than 0-Less than 80) | – | – | –
O=C(CC(F)(F)F)Nc1ccc(NC(=O)c2cc(NC(=O)[C@H]3[C@H](c4cc(Cl)cc(Cl)c4)C3(Cl)Cl)ccc2Cl)cc1 (relative stereo) [PF25, trans-2-chloro-5-(2,2-dichloro-3-(3,5-dichlorophenyl)cyclopropane-1-carboxamido)-N-(4-(3,3,3-trifluoropropanamido)phenyl)benzamide] | 50 to 100 | 50 to 100 | B (More than 0-Less than 80) | – | – | –
O=C(Nc1ccc(S(=O)(=O)CC(F)(F)F)cc1)c1cc(NC(=O)[C@H]2[C@H](c3cc(Cl)cc(Cl)c3)C2(Cl)Cl)ccc1Cl (relative stereo) [PF17, trans-2-chloro-5-(2,2-dichloro-3-(3,5-dichlorophenyl)cyclopropane-1-carboxamido)-N-(4-((2,2,2-trifluoroethyl)sulfonyl)phenyl)benzamide] | 50 to 100 | 50 to 100 | B (More than 0-Less than 80) | – | – | –
O=C(Nc1ccc(F)cc1F)c1cc(NC(=O)[C@H]2[C@H](c3ccc(Cl)c(Br)c3)C2(Cl)Cl)ccc1Cl [F572, 5-((1R,3R)-3-(3-Bromo-4-chlorophenyl)-2,2-dichlorocyclopropane-1-carboxamido)-2-chloro-N-(2,4-difluorophenyl)benzamide] | 50 to 100 | 50 to 100 | A (80-100) | – | – | –
Cc1cc(N)ccc1NC(=O)c1cccc(NC(=O)[C@H]2[C@H](c3cc(Cl)cc(Cl)c3)C2(Cl)Cl)c1 (relative stereo) [F266, trans-N-(4-Amino-2-methylphenyl)-3-(2,2-dichloro-3-(3,5-dichlorophenyl)cyclopropane-1-carboxamido)benzamide] | – | – | – | 50 to 100 | 50 to 100 | A (80-100)
O=C(Nc1ccc(-n2ccnn2)cc1)c1cc(NC(=O)[C@H]2[C@H](c3cc(Cl)cc(Cl)c3)C2(Cl)Cl)ccc1Cl (relative stereo) [F217, trans-N-(4-(1H-1,2,3-Triazol-1-yl)phenyl)-2-chloro-5-(2,2-dichloro-3-(3,5-dichlorophenyl)cyclopropane-1-carboxamido)benzamide] | – | – | – | 50 to 100 | 50 to 100 | B (More than 0-Less than 80)
